Patent US20230323028A1, “ADHESIVE PHOTOPROTECTIVE COMPOUNDS AND USES THEREOF” (SKINOSIVE, priority 2019, published 2023)

Key:
[1] = λmax UV absorbance in solution; format: physicochemical
Procedure: λmax UV absorbance of diethylamino hydroxybenzoyl hexyl benzoate in ethanol/DMSO 9/1 was measured at 357 nm and λmax UV absorbance of Compound #16 was measured at 357 nm.
λmax UV absorbance of diethylamino hydroxybenzoyl hexyl benzoate in ethanol/DMSO 9/1 was measured at 357 nm and λmax UV absorbance of Compound #17 was measured at 357 nm.
λmax UV absorbance of Octocrylene in ethanol/DMSO 9/1 was measured at 305 nm and λmax UV absorbance of Compound #18 was measured at 293 nm.
λmax UV absorbance of Octocrylene in ethanol/DMSO 9/1 was measured at 305 nm and λmax UV absorbance of Compound #19 was measured at 308 nm.
λmax UV absorbance of Ecamsule in Ethanol/H2O/DMSO 5/3/2 was measured at 341 nm and λmax UV absorbance of Compound #20 was measured at 344 nm.
λmax UV absorbance of bemotrizinol in ethanol/benzyl alcohol/DMSO/Phenoxyethanol 63/18/10/9 was measured at 342 nm and λmax UV absorbance of Compound #21 was measured at 342 nm.
λmax UV absorbance of Octocrylene in ethanol was measured at 304 nm and Amax UV absorbance of Compound #23 was measured at 304 nm.

[2] = Bioadhesion in liquid phase: binding to cysteine, assayed by HPLC; conditions: 1 to 2 minutes, Ethanol-1×PBS pH 6.8 (pH 6.0 for compound #23)
Procedure: The compounds bio adhesion was carried out in solution, for the protein binding, and for the specific binding of sulfhydryl-reactive chemical groups of cysteine. The compounds were mixed either with an equimolar solution of cysteine (two molar equivalent solution of cysteine for the compounds including two maleimides) or an excess of cysteine solution (five or ten times molar compound concentration) and were incubated 1 to 2 minutes in an Ethanol-1×PBS, pH 6.8 solution and in Ethanol-1×PBS, pH 6.0 solution for the compound #23.
The compound and the compound bound to the cysteine were identified by LC-MSD (Agilent 1260 Infinity II equipped with an Uptisphere strategy C18 or SunFire C18 column) and assayed by HPLC using an Agilent Infinity II Prime UHPLC UV detector system. The separation was achieved by using a gradient phase of water and acetonitrile on an Agilent Poroshell 120 EC-C18 column (3×100 mm, 2.7 μM).

[3] = Adhesion on thiolated polylysine matrix (UV absorbance of coated 96-well microplates); conditions: UV absorbance at 300 nm; overnight incubation in ethanol/PBS (90%/10%); washed 10 times with ethanol
Procedure: (§1) Polylysine and Polylysine enriched in SH by thiolation of primary amines using Traut's reagent were used for coating 96-well microplates. Compound #23 (OOM) incubated overnight under orbital agitation on the different matrices (n=3 for each condition) (uncoated wells were used as negative controls), in an ethanol/PBS (90%/10%) solution. After incubation, each microplate well was thoroughly washed 10 times with ethanol, before measuring UV absorbance. Whole UV/Visible absorbance spectrum from 220 to 1000 nm were measured in the center of each microplate well. In addition, specific UV absorbance at 300 nm was measured by matrix scan over the whole the well as a 10×10 matrix.

[4] = Adhesion on polylysine matrix, non thiolated (UV absorbance of coated 96-well microplates); conditions: UV absorbance at 300 nm; overnight incubation in ethanol/PBS (90%/10%); washed 10 times with ethanol
Procedure: as §1

pig skin = assay: UVB protection ex vivo on pig skin by autofluorescence quenching; conditions: for UVB Fluorescence (Ex300/Em460), autofluorescence of pig skin: 4 h incubation at 37° C. in Dottisol, Mean ± SD, N = 3
Procedure: UVB protection has been assessed ex vivo on pig skin by measuring the autofluorescence quenching. OOM (Compound #23) and OCR (Octocrylene) were solubilized at the same molar concentration in Dottisol (isosorbide dimethyl ether), then covered 6.25 cm^2 skin square and incubated 4 hours at 37° C., washed or not with 10 mL Ethanol for 5 min on agitation. Then 7 mm diameter skin punches were cut and placed in a black 96-well plate. UVB protection was measured after respectively an excitation at 300 nm and a fluorescence emission was read at 460 nm.

[5] = equimolar cysteine:compound solution (two molar equivalents for compounds with two maleimides)
[6] = excess of cysteine (five or ten times molar compound concentration)
[7] = in ethanol/benzyl alcohol/DMSO/Phenoxyethanol 63/18/10/9
[8] = EtOH Wash (10 mL Ethanol, 5 min)

| λmax UV absorbance ([1]; in ethanol/DMSO 9/1) [nm] | Cysteine-bound compound [2, 5] [%] | Free compound [2, 5] [%] | Cysteine-bound compound [2, 6] [%] | Free compound [2, 6] [%] | SMILES | further results |
| --- | --- | --- | --- | --- | --- | --- |
| 357 | 75 | 25 | 92 | 8 | CCN(CC)c1ccc(C(=O)c2ccccc2C(=O)OCCOCCNC(=O)CCN2C(=O)C=CC2=O)c(O)c1 [Compound #16, 2-[4-(diethylamino)-2-hydroxybenzoyl]-benzoic acid, 2-[2-[3-(2,5-dioxopyrrol-1-yl)propanoylamino]ethoxy]ethyl ester] |  |
| 357 | 78 | 22 |  |  | CCN(CC)c1ccc(C(=O)c2ccccc2C(=O)OCCNC(=O)CCN2C(=O)C=CC2=O)c(O)c1 [Compound #17, 2-[4-(diethylamino)-2-hydroxy-benzoyl]benzoic acid, 2-[3-(2,5-dioxopyrrol-1-yl)propanoylamino]ethyl ester] |  |
| 293 | 73 | 27 | 99 | 1 | N#CC(C(=O)NCCNC(=O)CCN1C(=O)C=CC1=O)=C(c1ccccc1)c1ccccc1 [Compound #18, 2-cyano-N-[2-[3-(2,5-dioxopyrrol-1-yl)propanoylamino]ethyl]-3,3-diphenyl-prop-2-enamide] |  |
| 308 | 71 | 29 |  |  | N#CC(C(=O)OCCS(=O)(=O)CCNC(=O)CCN1C(=O)C=CC1=O)=C(c1ccccc1)c1ccccc1 [Compound #19, 2-cyano-3,3-diphenyl-prop-2-enoate, 2-[2-[3-(2,5-dioxopyrrol-1-yl)propanoylamino]ethylsulfonyl]ethyl ester] |  |
|  | 85 | 15 | 100 | 0 | CC1(C)C2CCC1(CS(=O)(=O)NCCNC(=O)CCN1C(=O)C=CC1=O)C(=O)/C2=C\c1ccc(/C=C2\C(=O)C3(CS(=O)(=O)NCCNC(=O)CCN4C(=O)C=CC4=O)CCC2C3(C)C)cc1 [Compound #20, 3-(2,5-dioxopyrrol-1-yl)-N-[2-[[(3Z)-3-[[4-[(Z)-[4-[2-[3-(2,5-dioxopyrrol-1-yl)propanoylamino]ethylsulfamoylmethyl]-7,7-dimethyl-3-oxo-norbornan-2-ylidene]methyl]phenyl]methylene]-7,7-dimethyl-2-oxo-norbornan-1-yl]methylsulfonylamino]ethyl]propanamide] | λmax UV absorbance ([1]; in Ethanol/H2O/DMSO 5/3/2): 344 nm |
|  |  |  |  |  | COc1ccc(-c2nc(-c3ccc(OCCCNC(=O)CCN4C(=O)C=CC4=O)cc3O)nc(-c3ccc(OCCCNC(=O)CCN4C(=O)C=CC4=O)cc3O)n2)cc1 [Compound #21, 3-(2,5-dioxopyrrol-1-yl)-N-[3-[4-[4-[4-[3-[3-(2,5-dioxopyrrol-1-yl)propanoylamino]propoxy]-2-hydroxy-phenyl]-6-(4-methoxyphenyl)-1,3,5-triazin-2-yl]-3-hydroxy-phenoxy]propyl]propanamide] | λmax UV absorbance [1, 7]: 342 nm |
|  | 100 | 0 | 100 | 0 | N#CC(C(=O)OCCCCCCCCNC(=O)CCN1C(=O)C=CC1=O)=C(c1ccccc1)c1ccccc1 [Compound #23, 8-(3-(2,5-dioxo-2,5-dihydro-1H-pyrrol-1-yl)propanamido)octyl 2-cyano-3,3-diphenylacrylate] | λmax UV absorbance ([1]; in ethanol): 304 nm; bio adhesion on thiolated polylysine matrix [3]: showed a bio adhesion; bioadhesion on polylysine matrix (non thiolated) [4]: no bioadhesion; UVB Fluorescence (Ex300/Em460), autofluorescence of pig skin (pig skin; [8]): 34870 ± 2729; UVB Fluorescence (Ex300/Em460), autofluorescence of pig skin (pig skin; No Wash): 25544 ± 3797; reduction of UVB protection after ethanol wash compared to the initial protection before washing (pig skin; ethanol wash): 30%; bio adhesion on pig skin (conclusion) (pig skin; retention of UVB protection after ethanol wash): bio adhesive; UVB protection of the pig skin compared with octocrylene (OCR) (pig skin; same molar concentration, no wash): more than two times higher |
|  |  |  |  |  | CC1(C)C2CCC1(CS(=O)(=O)O)C(=O)C2=Cc1ccc(C=C2C(=O)C3(CS(=O)(=O)O)CCC2C3(C)C)cc1 [Ecamsule, terephtalylidene dicamphor sulfonic acid, reference compound] | λmax UV absorbance ([1]; in Ethanol/H2O/DMSO 5/3/2): 341 nm |
| 305 |  |  |  |  | CCCCC(CC)COC(=O)C(C#N)=C(c1ccccc1)c1ccccc1 (stereo not shown) [Octocrylene, reference compound] | λmax UV absorbance ([1]; in ethanol): 304 nm; bio adhesion on thiolated polylysine matrix [3]: did not show a bio adhesion; UVB Fluorescence (Ex300/Em460), autofluorescence of pig skin (pig skin; [8]): 201968 ± 11493; UVB Fluorescence (Ex300/Em460), autofluorescence of pig skin (pig skin; No Wash): 64781 ± 3246; UVB protection after the ethanol washing step (pig skin; ethanol wash): corresponds to the unprotected control |
|  |  |  |  |  | CCCCC(CC)COc1ccc(-c2nc(-c3ccc(OC)cc3)nc(-c3ccc(OCC(CC)CCCC)cc3O)n2)c(O)c1 (stereo not shown) [bemotrizinol, reference compound] | λmax UV absorbance [1, 7]: 342 nm |
| 357 |  |  |  |  | CCCCCCOC(=O)c1ccccc1C(=O)c1ccc(N(CC)CC)cc1O [diethylamino hydroxybenzoyl hexyl benzoate, reference compound] |  |
